# Laboratory results from publication PMC9043826, “Dalpulapans A–E from the roots of Dalbergia stipulacea” (RSC Advances, 2021).
# Columns and labels:
# Type in all cases: cell-based
# [1] = system: Vero cells (kidney of African green monkey cells; normal cells); assay: MTT cytotoxicity assay against Vero (normal) cells; details: Chlorocebus sabaeus
# Method: (§1) All isolated compounds, except 12, were evaluated for cytotoxicity against A549 (lung cancer cells), HeLa (cervical cancer cells) and Vero cells using the MTT assay.
# (§2) MTT (3-(4,5-dimethylthiazol-2-yl)-2,5-diphenyltetrazolium bromide) assay was performed to evaluate the cytotoxic effect of the compounds. The procedure has been explained in a previous report.[14] In brief, all cells were cultured in RPMI 1640 medium supplemented with 10% fetal bovine serum, penicillin (100 U mL^−1) and streptomycin (100 μg mL^−1) (Gibco-BRL, USA) and incubated at 37 °C in a humidified atmosphere of 5% CO2. For preliminary testing, cells were exposed to the selected compounds at a concentration of 100 μg mL^−1 for 24, 48 and 72 hours. […] Control groups were treated with a solvent (a mixture of DMSO and ethanol; 1 : 1). After incubation, the medium was replaced with 110 μL of fresh medium containing MTT (0.5 mg mL^−1 in PBS) (Sigma Chemical Co., St. Louis, MO, USA) and incubated for 2 h. […] The absorbance of formazan was measured with a microplate reader (Bio-Rad Laboratories, USA) at the wavelength of 550 nm using 655 nm as a reference wavelength. […] The percentage of viable cells which corresponds to the production of formazan was calculated as previously described (Kumnerdkhonkaen et al. 2018).% Cell viability = [sample (A550 − A655)/control (A550 − A655)] × 100
# [2] = system: HeLa (cervical cancer cells); assay: MTT cytotoxicity assay against HeLa cells; details: Homo sapiens
# Method: as §1, §2
# A549 (lung cancer cells) = assay: MTT cytotoxicity assay against A549 cells; details: Homo sapiens
# Method: as §1, §2
compound,measurement,setting,value
"CC(C)=CCC/C(C)=C/Cc1c(O)ccc2c1OC[C@H]1c3cc4c(cc3O[C@@H]21)OCO4 [Compound 6, R,R-velucarpin A]",IC50,[1],29.2 ± 1.16 µM
same,IC50,[2],10.9 ± 0.42 µM
same,IC50,A549 (lung cancer cells),14.6 ± 1.31 µM
